From the supplement of paper PMC6045584
± gives the standard deviation of the averaged measurements.

Experiments:
[1] = compound: O=C(NOCC1CC1)c1ccc(F)c(F)c1Nc1ccc(I)cc1Cl; experiment: surviving fraction relative to DMSO-only wells; higher = less growth inhibition; details: exposure time: 5 days
Method in brief: (§1)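 Each tumour cell line was screened three times, and only lines with replicate Pearson r >0.7 and median Z' >0.3 were kept. Cells in log phase were seeded at 250–500 per well in 384-well plates, left 24 hours, then exposed continuously for five days to inhibitors at 0.5, 1, 5, 10, 50, 100, 500 and 1000 nM. Viability was read as CellTiter-Glo luminescence, with surviving fraction normalised to the median of DMSO-only wells.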

EVEROLIMUS = compound: CO[C@H]1C[C@@H]2CC[C@@H](C)[C@@](O)(O2)C(=O)C(=O)N2CCCC[C@H]2C(=O)O[C@H]([C@H](C)C[C@@H]2CC[C@@H](OCCO)[C@H](OC)C2)CC(=O)[C@H](C)/C=C(\C)[C@@H](O)[C@@H](OC)C(=O)[C@H](C)C[C@H](C)/C=C/C=C/C=C/1C [EVEROLIMUS]; experiment: as above; details: exposure time: 5 days
Method in brief: as §1

Row | Test System | surviving fraction ([1]; 0.5 nM) | surviving fraction ([1]; 1 nM) | surviving fraction ([1]; 5 nM) | surviving fraction ([1]; 10 nM) | surviving fraction ([1]; 50 nM) | surviving fraction ([1]; 100 nM) | surviving fraction ([1]; 500 nM) | surviving fraction ([1]; 1000 nM) | surviving fraction (EVEROLIMUS; 0.5 nM) | surviving fraction (EVEROLIMUS; 1 nM) | surviving fraction (EVEROLIMUS; 5 nM) | surviving fraction (EVEROLIMUS; 10 nM) | surviving fraction (EVEROLIMUS; 50 nM) | surviving fraction (EVEROLIMUS; 100 nM) | surviving fraction (EVEROLIMUS; 500 nM) | surviving fraction (EVEROLIMUS; 1000 nM)
1 | SUM159 BREAST | 1.06 ± 0.29 | 1.03 ± 0.12 | 1.11 ± 0.36 | 1.03 ± 0.24 | 0.84 ± 0.2 | 0.726 ± 0.1 | 0.518 ± 0.11 | 0.455 ± 0.023 | 1.08 ± 0.023 | 1.09 ± 0.024 | 0.921 ± 0.047 | 0.851 ± 0.04 | 0.852 ± 0.06 | 0.807 ± 0.014 | 0.808 ± 0.022 | 0.784 ± 0.021
2 | SYO1 SYNOVIAL | 0.469 ± 0.17 | 0.941 ± 0.093 | 0.833 ± 0.065 | 0.888 ± 0.034 | 0.542 ± 0.11 | 0.885 ± 0.023 | 0.784 ± 0.058 | 0.8681 ± 0.0032 | 0.8921 ± 0.0089 | 0.834 ± 0.011 | 0.661 ± 0.016 | 0.602 ± 0.036 | 0.508 ± 0.011 | 0.508 ± 0.0081 | 0.484 ± 0.036 | 0.45 ± 0.022
3 | T47D BREAST | 0.8871 ± 0.0062 | 0.999 ± 0.027 | 0.943 ± 0.018 | 1.008 ± 0.0089 | 0.899 ± 0.011 | 1.06 ± 0.04 | 0.996 ± 0.075 | 0.977 ± 0.07 | 0.892 ± 0.044 | 0.815 ± 0.047 | 0.686 ± 0.041 | 0.637 ± 0.021 | 0.646 ± 0.021 | 0.664 ± 0.038 | 0.6 ± 0.018 | 0.603 ± 0.022
4 | U2OS BONE | 1.03 ± 0.016 | 1.03 ± 0.019 | 1.02 ± 0.036 | 1.07 ± 0.042 | 0.983 ± 0.026 | 0.996 ± 0.035 | 0.95 ± 0.03 | 0.876 ± 0.03 | 0.954 ± 0.025 | 0.88 ± 0.039 | 0.7943 ± 0.0025 | 0.706 ± 0.039 | 0.678 ± 0.011 | 0.651 ± 0.029 | 0.633 ± 0.012 | 0.568 ± 0.03
5 | VCAP PROSTATE | 0.925 ± 0.048 | 0.984 ± 0.082 | 0.923 ± 0.042 | 1.01 ± 0.12 | 0.86 ± 0.079 | 1.08 ± 0.068 | 1.05 ± 0.13 | 0.975 ± 0.0027 | 1.04 ± 0.079 | 1.04 ± 0.052 | 0.941 ± 0.1 | 0.984 ± 0.032 | 0.891 ± 0.15 | 0.898 ± 0.027 | 0.758 ± 0.078 | 0.766 ± 0.056
6 | VP229 BREAST | 1.11 ± 0.054 | 1.16 ± 0.099 | 1.24 ± 0.14 | 1.08 ± 0.041 | 1.03 ± 0.13 | 0.908 ± 0.043 | 0.782 ± 0.039 | 0.769 ± 0.074 | 0.812 ± 0.056 | 0.664 ± 0.048 | 0.645 ± 0.086 | 0.566 ± 0.051 | 0.584 ± 0.01 | 0.541 ± 0.058 | 0.507 ± 0.061 | 0.511 ± 0.045
7 | YAMATO SYNOVIAL | 0.319 ± 0.026 | 1.07 ± 0.11 | 0.9 ± 0.084 | 1.2 ± 0.044 | 0.483 ± 0.013 | 1.1 ± 0.14 | 0.789 ± 0.064 | 0.928 ± 0.049 | 1.07 ± 0.084 | 1.06 ± 0.074 | 1.06 ± 0.02 | 0.633 ± 0.022 | 0.5 ± 0.021 | 0.454 ± 0.0076 | 0.401 ± 0.014 | 0.473 ± 0.03
8 | ZR751 BREAST | 0.804 ± 0.14 | 0.868 ± 0.022 | 0.806 ± 0.049 | 0.814 ± 0.056 | 0.697 ± 0.071 | 0.846 ± 0.03 | 0.677 ± 0.03 | 0.682 ± 0.011 | 0.964 ± 0.017 | 0.715 ± 0.031 | 0.502 ± 0.054 | 0.5 ± 0.068 | 0.337 ± 0.014 | 0.353 ± 0.015 | 0.322 ± 0.038 | 0.339 ± 0.0066
